# Patent US20120178765A1, “NOVEL GLUCOKINASE ACTIVATORS AND PROCESSES FOR THE PREPARATION THEREOF” (YUHAN CORPORATION, priority 2009, published 2012)
# Structures can show the parent of a compound that is named as a salt.
# Target: T1, Glucokinase (Homo sapiens, UniProt P35557)
# T1 construct: purchased ProteinOne Inc
# T1 sequence (P35557 1-465): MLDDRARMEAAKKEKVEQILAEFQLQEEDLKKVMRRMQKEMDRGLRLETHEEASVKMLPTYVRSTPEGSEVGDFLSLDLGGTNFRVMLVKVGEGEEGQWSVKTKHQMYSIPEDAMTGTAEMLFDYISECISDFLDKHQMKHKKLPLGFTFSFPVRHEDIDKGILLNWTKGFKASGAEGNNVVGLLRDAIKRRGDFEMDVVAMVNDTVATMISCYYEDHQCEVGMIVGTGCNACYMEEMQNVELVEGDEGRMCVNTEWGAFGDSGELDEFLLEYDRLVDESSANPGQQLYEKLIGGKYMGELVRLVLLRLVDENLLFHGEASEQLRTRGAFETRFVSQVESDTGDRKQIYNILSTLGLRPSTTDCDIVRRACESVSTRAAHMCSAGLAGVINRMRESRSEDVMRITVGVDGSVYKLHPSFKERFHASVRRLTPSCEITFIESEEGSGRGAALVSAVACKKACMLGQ
# Test: Glucokinase activation assay (NADPH absorbance at 340 nm)
# Type: biochemical
# Conditions: glucokinase (ProteinOne Inc.), 5 mM D(+)-glucose, 24° C., 90 minutes
# Experimental: The amounts of glucokinase activation were determined by measuring the levels of NADPH (the final metabolite of glucose through glucokinase-mediated phospho-rylation) and then calculating to glucokinase activities.
# Glucokinase (ProteinOne Inc.) was added, in the concentration of 100 ng/uL, to a enzyme-reaction medium (25 mM HEPES pH 7, 25 mM KCL, 1 mM MgCl, 5 mM D(+)-glucose, 1 mM ATP, 1 mM NADP, 1 mM DTT, and 2.5 u/mL G6PDH). Each compound in predetermined concentrations was added to the enzyme-reaction medium and then absorbance (First Absorbance) was measured at 340 nm of wavelength. After measuring the first absorbance, each reaction mixture was incubated at 24° C. for 90 minutes and then absorbance (Second Absorbance) was re-measured at 340 nm of wavelength. Using changes between First Absorbance and Second Absorbance, glucokinase activity was calculated. In the calculation, a maximum activity of the test compound (Emax), in comparison to the control group (no treatment of compound) was determined and then EC50 was calculated using the software for statistical analysis “Prism”, based on the activity-changes according to concentrations of the test compounds.
# The amounts of glucokinase activation of the compounds of Comparative Examples 1 and 2 were determined, in accordance with the same procedures as in Test Example 1.
row,Compound,EC50
1,3-{2-[3-(4-chlorobenzoylamino)phenyl]ethyl}-5-(2-methoxy-(1S)-methyl-ethoxy)-N-(t hiazol-2-yl)-benzamide [Example 126],364 nM
2,3-[trans-2-(2-chlorophenyl)vinyl]-5-(2-methoxy-(1S)-methyl-ethoxy)-N-(pyrazin-2-yl)-benzamide [Example 53],503 nM
3,3-[2-(2-aminophenyl)ethyl]-5-(2-methoxy-(1S)-methyl-ethoxy)-N-(thiazol-2-yl)-benzamide [Example 88],108 nM
4,"CC(C)COc1cc(/C=C/c2ccc(F)cc2)cc(C(=O)Nc2nccs2)c1 [Example 2, 3-[trans-2-(4-fluorophenyl)vinyl]-5-isobutoxy-N-(thiazol-2-yl)-benzamide]",172 nM
5,3-[2-(2-benzenesulfonylaminophenyl)ethyl]-5-(2-methoxy-(1S)-methyl-ethoxy)-N-(thiazol-2-yl)-benzamide [Example 115],210 nM
6,3-[2-(2-methanesulfonylaminophenyl)ethyl]-5-(2-methoxy-(1S)-methyl-ethoxy)-N-(thiazol-2-yl)-benzamide [Example 113],72.1 nM
7,3-{2-[3-(phenylacetylamino)phenyl]ethyl}-5-(2-methoxy-(1S)-methyl-ethoxy)-N-(thiazol-2-yl)-benzamide [Example 123],225 nM
8,3-[2-(3-butyrylaminophenyl)ethyl]-5-(2-methoxy-(1S)-methyl-ethoxy)-N-(thiazol-2-yl)-benzamide [Example 119],370 nM
9,"COC[C@H](C)Oc1cc(CCc2cccc(N)c2)cc(C(=O)Nc2nccs2)c1 [Example 111, 3-[2-(3-aminophenyl)ethyl]-5-(2-methoxy-(1S)-methyl-ethoxy)-N-(thiazol-2-yl)-benzamide hydrochloride]",54.7 nM
10,"COC[C@H](C)Oc1cc(/C=C/c2ccccc2F)cc(C(=O)Nc2ccc(C(=O)O)cn2)c1 [Example 76, 3-[trans-2-(2-fluorophenyl)vinyl]-5-(2-methoxy-(1S)-methyl-ethoxy)-N-(nicotinic acid-6-yl)-benzamide]",55.8 nM
11,"COC[C@H](C)Oc1cc(/C=C/c2c(F)cccc2F)cc(C(=O)Nc2ccc(C(=O)OC)cn2)c1 [Example 69, 3-[trans-2-(2,6-difluorophenyl)vinyl]-5-(2-methoxy-(1S)-methyl-ethoxy)-N-(nicotinic acid-3-methyl ester-6-yl)-benzamide]",146 nM
12,"3-[2-(2,4-dimethoxyphenyl)ethyl]-5-(2-methoxy-(1S)-methyl-ethoxy)-N-(pyrazin-2-yl)-benzamide [Example 105]",298 nM
13,3-[2-(4-aminophenyl)ethyl]-5-(2-methoxy-(1S)-methyl-ethoxy)-N-(thiazol-2-yl)-benzamide [Example 92],113 nM
14,"3-[trans-2-(2,5-difluorophenyl)vinyl]-5-(2-methoxy-(1S)-methyl-ethoxy)-N-(1-methyl-1H-pyrazol-3-yl)-benzamide [Example 36]",200 nM
15,"3-[2-(2,4-difluorophenyl)ethyl]-5-(2-methoxy-(1S)-methyl-ethoxy)-N-(1-methyl-1H-pyrazol-3-yl)-benzamide [Example 96]",184 nM
16,"COC[C@H](C)Oc1cc(CCc2c(F)cccc2F)cc(C(=O)Nc2ccc(C(=O)O)cn2)c1 [Example 109, 3-[2-(2,6-difluorophenyl)ethyl]-5-(2-methoxy-(1S)-methyl-ethoxy)-N-(nicotinic acid-6-yl)-benzamide]",208 nM
17,"3-[trans-2-(2,4-difluorophenyl)vinyl]-5-(2-methoxy-(1S)-methyl-ethoxy)-N-(pyrazin-2-yl)-benzamide [Example 56]",301 nM
18,"COC[C@H](C)Oc1cc(/C=C/c2c(F)cccc2F)cc(C(=O)Nc2nccs2)c1 [Example 12, 3-[trans-2-(2,6-difluorophenyl)vinyl]-5-(2-methoxy-(1S)-methyl-ethoxy)-N-(thiazol-2-yl)-benzamide]",14.7 nM
19,"3-[trans-2-(2,3-difluorophenyl)vinyl]-5-(2-methoxy-(1S)-methyl-ethoxy)-N-(5-fluorothiazol-2-yl)-benzamide [Example 24]",47.3 nM

row,Compound,EC50
1,3-[trans-2-(3-chlorophenyl)vinyl]-5-(2-methoxy-(1S)-methyl-ethoxy)-N-(1-methyl-1H-pyrazol-3-yl)-benzamide [Example 47],107 nM
2,"CCC(COC)Oc1cc(/C=C/c2ccc(F)cc2)cc(C(=O)Nc2nccs2)c1 (stereo not drawn) [Example 148, 3-[trans-2-(4-fluorophenyl)vinyl]-5-(1-methoxymethyl-propoxy)-N-(thiazol-2-yl)-benzamide]",417 nM
3,"3-[2-(2,3-difluorophenyl)ethyl]-5-(2-methoxy-(1S)-methyl-ethoxy)-N-(1-methyl-1H-pyrazol-3-yl)-benzamide [Example 95]",418 nM
4,"CC(C)COc1cc(/C=C/c2ccccc2F)cc(C(=O)Nc2nccs2)c1 [Example 70, 3-[trans-2-(2-fluorophenyl)vinyl]-5-isobutoxy-N-(thiazol-2-yl)-benzamide]",102 nM
5,"3-[2-(2,3-dimethoxyphenyl)ethyl]-5-(2-methoxy-(1S)-methyl-ethoxy)-N-(1-methyl-1H-pyrazol-3-yl)-benzamide [Example 103]",448 nM
6,"COC[C@H](C)Oc1cc(/C=C/c2cccc(F)c2F)cc(C(=O)Nc2ccc(C(=O)O)cn2)c1 [Example 78, 3-[trans-2-(2,3-difluorophenyl)vinyl]-5-(2-methoxy-(1S)-methyl-ethoxy)-N-(nicotinic acid-6-yl)-benzamide]",123 nM
7,"COC[C@H](C)Oc1cc(/C=C/c2c(F)cccc2F)cc(C(=O)Nc2ccn(C)n2)c1 (stereo in doubt) [Example 37, 3-[trans-2-(2,6-difluorophenyl)vinyl]-5-(2-methoxy-(1S)-methyl-ethoxy)-N-(1-methyl-1H-pyrazol-3-yl)-benzamide]",161 nM
8,"COC[C@H](C)Oc1cc(/C=C/c2cccc(F)c2F)cc(C(=O)Nc2ccc(C(=O)OC)cn2)c1 [Example 66, 3-[trans-2-(2,3-difluorophenyl)vinyl]-5-(2-methoxy-(1S)-methyl-ethoxy)-N-(nicotinic acid-3-methyl ester-6-yl)-benzamide]",387 nM
9,"Cc1ccc(/C=C/c2cc(OCC(C)C)cc(C(=O)Nc3nccs3)c2)cc1 [Example 1, 3-[trans-2-(p-tolyl)vinyl]-5-isobutoxy-N-(thiazol-2-yl)-benzamide]",164 nM
10,"3-[trans-2-(3,4-dimethoxyphenyl)vinyl]-5-(2-methoxy-(1S)-methyl-ethoxy)-N-(5-fluorothiazol-2-yl)-benzamide [Example 30]",132 nM
11,"3-[trans-2-(2,5-difluorophenyl)vinyl]-5-(2-methoxy-(1S)-methyl-ethoxy)-N-(pyrazin-2-yl)-benzamide [Example 57]",283 nM
12,3-{2-[4-(4-chlorobenzoylamino)phenyl]ethyl}-5-(2-methoxy-(1S)-methyl-ethoxy)-N-(thiazol-2-yl)-benzamide [Example 140],440 nM
13,"CCOC(=O)Nc1cccc(CCc2cc(O[C@@H](C)COC)cc(C(=O)Nc3nccs3)c2)c1 [Example 122, 3-{2-[3-(carbamic acid ethyl ester)phenyl]ethyl}-5-(2-methoxy-(1S)-methyl-ethoxy)-N-(thiazol-2-yl)-benzamide]",205 nM
14,3-[2-(2-fluorophenyl)ethyl]-5-(2-methoxy-(1S)-methyl-ethoxy)-N-(pyrazin-2-yl)-benz amide [Example 107],333 nM
15,"3-[trans-2-(2,3-dimethoxyphenyl)vinyl]-5-(2-methoxy-(1S)-methyl-ethoxy)-N-(thiazol-2-yl)-benzamide [Example 17]",50.4 nM
16,"COC[C@H](C)Oc1cc(/C=C/c2ccccc2OC)cc(C(=O)Nc2ccc(C(=O)O)cn2)c1 [Example 73, 3-[trans-2-(2-methoxyphenyl)vinyl]-5-(2-methoxy-(1S)-methyl-ethoxy)-N-(nicotinic acid-6-yl)-benzamide]",82.8 nM
17,"3-[trans-2-(2,3-difluorophenyl)vinyl]-5-(2-methoxy-(1S)-methyl-ethoxy)-N-(pyrazin-2-yl)-benzamide [Example 55]",346 nM
18,"COC[C@H](C)Oc1cc(/C=C/c2ccc(F)cc2)cc(C(=O)Nc2ccc(C(=O)O)cn2)c1 [Example 77, 3-[trans-2-(4-fluorophenyl)vinyl]-5-(2-methoxy-(1S)-methyl-ethoxy)-N-(nicotinic acid-6-yl)-benzamide]",120 nM
19,3-[2-(4-methoxyphenyl)ethyl]-5-(2-methoxy-(1S)-methyl-ethoxy)-N-(1-methyl-1H-pyrazol-3-yl)-benzamide [Example 100],314 nM
